{"source": "patent US10351501B2", "about": "“Gem difluorocompounds as depigmenting or lightening agents” (TFCHEM, priority 2015, dated 2019)", "key": {"[1]": {"assay": "Antioxidant activity by the spectrophotometric method of the free radical DPPH•", "from_the_text": "The aim of the study was to evaluate the antioxidant activity of compound 11 by the spectrophotometric method of the free radical DPPH• (2,2-diphenyl-1-picrylhydrazyl). Indeed, antioxidants react with DPPH^• (purple), a stable free radical which is reduced to DPPH-H (yellow), and in consequence, the absorbance is decreased from the DPPH^• radical to the DPPH-H form. The degree of discoloration indicates the scavenging potential of the antioxidant compounds in terms of hydrogen donating ability (Popovici et al. Revue de génie industriel 2009, 4, 25-39).\nThe tested compounds were: Trolox ((±)-6-hydroxy-2,5,7,8-tetramethylchromane-2-carboxylic acid, Sigma Aldrich), as reference, and compound 11.\nA stock solution of DPPH• was prepared at 200 μmol/mL in methanol and diluted in methanol in order to have a final concentration of around 150 μmol/mL to obtain a DO close to 0.9 in a plate of 96 wells. The antioxidant stock solutions were prepared at 1 mg/mL in methanol and the tested solutions were prepared from these antioxidant stock solutions as described in Table 7 below.\n50 μL of each solution of antioxidant was added to the wells. Then, 200 μL of DPPH^• was added to each well.\nThe blank was prepared with only 250 μl of methanol and the negative control was prepared with 200 μL DPPH• and 50 μL of methanol.\nThe analysis was started immediately after the addition of DPPH• lasting for 2 hours (readings every 20 seconds). The absorbance was read at 515 nm. Each experiment was performed three times and had shown that the absorbance decreases while the concentration of antioxidant increased.\nThe activity of DPPH• is a percentage calculated as the ratio of A/An×100%.\nThe EC50 is expressed as a molar ratio of antioxidant (compound 11)/DPPH• (Popovici et al. Revue de génie industriel 2009, 4, 25-39). The EC50 was determined from the graph representing the percentage of DPPH• in function of the above mentioned molar ratio (moles of compound 11/moles of DPPH•).\nThe antioxidant activity of compound 11 was compared to that of Trolox used as a reference (considered as 100%)."}, "[2]": {"assay": "In vitro human skin absorption, Franz diffusion cell: quantification in skin fractions (epidermis, dermis)", "assay_type": "in vitro ADME", "settings": "emulsion 0.1 mg/mL, 200 μL, T24 h", "from_the_text": "The aim of this study was to evaluate the absorption of compound 11 applied to excised human skin.\nIn vitro method using a Franz diffusion cell allows measuring the diffusion of chemicals into and across skin.\nThe tested compound is applied to the surface of a human skin explant separating the two chambers of a Franz diffusion cell. The compound remains on the skin for a specified time under specified conditions. The receptor fluid is sampled at time points throughout the experiment and analyzed for the tested compound. The skin may also be fractioned for separate analysis in epidermis or dermis layers.\nThe transcutaneous absorption was measured on human skin collected from the abdominoplasty of a single donor. […]\nThe tested compounds were quantified, at T0 h and T24 h in the receptor solution bathing the inner surface of the skin (determination of flux), or at T24 h in the fractionated skin extracts (epidermis or dermis).\nTo prepare the extracts, the skin explant is firstly divided in dermis and epidermis layers, then 500 μL of methanol were added on each piece of skin and incubated in an ultrasonic bath for 4 hours. […] Secondly the quantification of compounds by LC-MS/MS method was realized on 100 μl of the previous preparation added with 1000 μl of ultrapure water and 10 μl of an internal standard […]\nThe skin extracts were prepared at T24 h and the quantification of compound 11 was performed. […]"}, "[3]": {"assay": "In vitro stability: hydroquinone released in various chemical conditions (HPLC-UV/DAD)", "assay_type": "physicochemical", "procedure": "The stability of compound 11 was evaluated by the released of hydroquinone, which is a potentially toxic compound, in different chemical conditions (extreme conditions, simulating the application of these molecules on the skin) and it was compared to the deoxyarbutin.\nThis study involved different tests as degradation test and chemical stability (various chemical solutions, pH and temperatures).\nAnalytical Method (HPLC-UV/DAD Method)\nColumn Atlantis dC18 150 mm*4.6 mm*3 μm Waters, 30° C. Injection 50 μl, 25° C. λ: 220 nm, 265 nm, 285 nm. A-Acetonitrile B-Water; 0.8 ml/min; elution gradient: […]\nThis analytical method gave linear response for compound 11, Deoxyarbutin and Hydroquinone from 25 ng/mL to 1000 ng/mL. Dilution of samples had to be taken into account for each stability study to calculate the LLOQ of each compound.\nThe tested compounds are incubated in different solutions, at different times (see table 1). Then the analytical method was used to quantify remaining compounds and potential hydroquinone released (as possible degradation of compounds).\nHydroquinone (HQ) apparition is expressed as a percentage of initial compound 11 or Deoxyarbutin. The calculation was done in molar units and the limit of quantification fluctuates with the initial concentration."}}}
{"smiles": "Oc1ccc(OC2CCCCC2(F)F)cc1", "note": "(racemic) [Compound 11]", "values": [{"measurement": "A at 515 nm (T = 30 min)", "setting": "[1]; Solution 1 (0.05 mg/mL in methanol)", "result": 0.505}, {"measurement": "A at 515 nm (T = 30 min)", "setting": "[1]; Solution 2 (0.10 mg/mL in methanol)", "result": 0.373}, {"measurement": "A at 515 nm (T = 30 min)", "setting": "[1]; Solution 3 (0.15 mg/mL in methanol)", "result": 0.234}, {"measurement": "A at 515 nm (T = 30 min)", "setting": "[1]; Solution 4 (0.2 mg/mL in methanol)", "result": 0.233}, {"measurement": "antioxidant (free radical scavenger) efficacy compared to that of Trolox", "setting": "[1]; Trolox considered as 100%", "result": 31.1, "unit": "%"}, {"measurement": "EC50 (Ratio antioxidant/DPPH•) Mean", "setting": "[1]; molar ratio antioxidant/DPPH•, absorbance at T = 30 min", "result": 0.772}, {"measurement": "Quantity in skin extract", "setting": "[2]; DERMIS", "result": "5.1 μg/g of tissue"}, {"measurement": "Quantity in skin extract", "setting": "[2]; EPIDERMIS", "result": "22.3 μg/g of tissue"}, {"measurement": "% Hydroquinone released", "setting": "[3]; Ringer's solution pH 5.5 at 70° C., 24 H", "result": 0.00, "unit": "%"}, {"measurement": "% Hydroquinone released", "setting": "[3]; Ringer's solution pH 8.5 at 70° C., 24 H", "result": 0.00, "unit": "%"}, {"measurement": "% Hydroquinone released", "setting": "[3]; Synthetic perspiration at RT, 48 H", "result": 0.00, "unit": "%"}, {"measurement": "% Hydroquinone released", "setting": "[3]; Water at room temperature, 14 Days", "result": 0.00, "unit": "%"}, {"measurement": "Hydroquinone release", "setting": "[3]; whatever the tested conditions", "result": "never released"}]}
